From a melting point compilation (Tetko et al.; mined from patent text by program, amines drawn as free bases though some values may be those of a salt) come the findings set out here.

One may read the melting point as the temperature of the solid-liquid transition.

The structures appear in SMILES notation. Some results are limits rather than exact numbers.

Take `O=c1c2cc(OCc3ccccc3)ccc2[nH]c2c([N+](=O)[O-])cc([N+](=O)[O-])c(Cl)c12`: the melting point fell in the range of 217 to 220 °C.

`CCOC(=O)c1cnc(-c2ccccc2OCC(C)C)[nH]c1=O` displayed a melting point of 89 to 91 °C.

Compound `COc1ccc(-c2cncc(C#N)c2Oc2ccc3[nH]ccc3c2)cc1OC` yielded a melting point of 192 to 194 °C.

In turn, `CCCOc1ccc(S(=O)(=O)NCc2ccncc2)cc1-c1nc2cc(N)c(N)cc2c(=O)[nH]1` yielded a melting point of 157 to 160 °C.

With `CCOC(=O)C1=C(C)NC(=S)N(C(=O)OCC)C1c1ccccc1OC` (stereo unspecified), the melting point was 117 to 118 °C.

Regarding `COC(=O)c1ccc(C)c(C2=NC(C)(C(C)C)C(=O)N2)c1Cl` (stereo unspecified), the melting point was 181 to 183 °C.

Take `COc1ccc(-c2cc3c(O)ncnc3[nH]2)cc1`: the melting point was > 300 °C.

In turn, `CCOC(=O)CCNC(=O)c1ccc2c(CC)nn(C3CCCC3)c2c1` had a melting point of 74 to 76 °C.

In turn, `COc1cc(C)c([N+](=O)[O-])cc1F` registered a melting point of 95 to 95.5 °C.

`NC(=O)/C=C1/c2cc(F)ccc2CC1O[N+](=O)[O-]` (stereo unspecified) yielded a melting point of 162 to 163 °C.

Turning to `N#Cc1ccn(-c2ccc([N+](=O)[O-])cc2F)c1`, the melting point was in the range of 117 to 119 °C.

`Cc1cc(C)nc(NC(C(=O)O)C(c2ccccc2)c2ccccc2)n1` (stereo unspecified) gave a melting point of 172 to 174 °C.

Turning to `CC(C)N(CCC(C#N)c1ccc(-c2ccccc2)cc1)C(C)C` (stereo unspecified), the melting point fell in the range of 54 to 56 °C.

As for `O=C1Nc2cccc(Cl)c2C1(O)c1cc2c(cc1O)OCO2` (stereo unspecified), the melting point was 250 to 253 °C.

`CNc1noc(C)c1Cl` showed a melting point of 43 to 47 °C.

In turn, `CCn1ncc2c(NCc3cccc(OC)c3)c3ccccc3nc21` had a melting point of 260 to 263 °C.

For the compound `CN(C)c1ccc2cc(-c3ccn4ccnc4c3C#N)ccc2c1`, the melting point fell in the range of 268 to 269 °C.

Compound `CCCn1c(=O)c2[nH]c(-c3ccoc3)nc2n(CCC)c1=O` registered a melting point of 244 to 245 °C.

In the case of `O=C(O)c1cn(CC2CCCCC2)c2cc(Cl)ccc12`, the melting point was 170 to 172 °C.

In the case of `COc1ccc(CNc2ncccc2C(=O)O)cc1`, the melting point was found to be 229 °C.

`Cc1nc(NC(=O)c2ccccc2)sc1C(=O)NCc1ccccc1F` displayed a melting point of 180 to 183 °C.

`C#CCn1c(Sc2ccccc2)c(CC)c(=O)[nH]c1=O`: the melting point stood at 132 °C.

As to `CC(=O)NCCc1ccc(C(=O)c2cccc(F)c2)cc1`, the melting point is 78 °C.

On to `CN(c1cccc2cc(C3=NCC(CC(=O)O)S3)[nH]c12)S(=O)(=O)c1ccccc1C(F)(F)F` (stereo unspecified), for which the melting point was 170 to 172 °C.

Turning to `O=C(Cc1cccc(Br)c1)Nc1ccc(Sc2c(O)c3c(Cl)cc(Cl)cc3[nH]c2=O)cc1`, the melting point is 292 to 296 °C.

`COc1cc(CBr)ccc1[N+](=O)[O-]`: the melting point was 98 °C.

In turn, `Cn1ccnc1COc1ccccc1[N+](=O)[O-]` gave a melting point of 172 to 174 °C.

`CCCCCCSCCSCCSc1nc2nc(C)cc(O)n2n1` registered a melting point of 119 to 121 °C.

Consider `Nc1nc(NCCc2cccc(O)c2)nc2nc(-c3ccco3)nn12`, for which the melting point lay in the range of 190 to 193 °C.

Compound `COC(=O)CCCC#Cc1cc(Cl)ccc1NS(=O)(=O)c1cccc2ccccc12` had a melting point of 93 to 95 °C.

The compound `CCOC(=O)CN(c1ccc(N)cc1)S(=O)(=O)c1cccc2ccccc12` yielded a melting point of 98 to 103 °C.

`CCOC(=O)C(C(=O)C(C)C)C(CC(=O)C(C)C)c1ccc(F)cc1` (stereo unspecified) had a melting point of 57 to 60 °C.

Turning to `CN1CCN(c2ccc(C(=O)NCCCCCCCCCCO[N+](=O)[O-])cn2)CC1`, the melting point is 62 to 64 °C.

The compound `O=S1(=O)CCON=C1c1nc2ccccc2s1` yielded a melting point of 226 to 227 °C.

As for `O=Cc1c(Cl)ncnc1Cl`, the melting point was in the range of 65 to 66 °C.

Compound `CCSc1cc(C)nc(SCC)c1NC(=O)CCCCCCCCSc1nc2ccccc2[nH]1` displayed a melting point of 76 to 78 °C.

The compound `Cc1c(NC(=O)c2ccc(-c3ccc(F)cc3)cc2)ccc2cc(CN3CCOCC3)cnc12` showed a melting point of 176 to 178 °C.

`Nc1ncc(CCC2CCCCC2)s1` came in with a melting point of 98 to 99 °C.

Regarding `CC(C)(C)OC(=O)N1CCC(n2cc(-c3ccc(Oc4ccccc4)cc3)c3c(N)ncnc32)C1` (stereo unspecified), the melting point is 168 to 170 °C.

With `O=C(c1ccc2cnccc2n1)N1CCc2ccccc2C1`, the melting point was 98 to 100 °C.

Consider `CCOC(=O)c1cn2c3c(cc(CN4CCOCC4)cc3c1=O)OC(F)(F)C2`, for which the melting point was 176 to 177 °C.

Turning to `Cc1cc(O)c(C)c(Br)c1C`, the melting point is 86 to 88 °C.

`OCCCC(O)c1ccccc1` (stereo unspecified): the melting point was 63 to 68 °C.

As for `CC(C)(C)c1cc(C(C)(C)C)c(Br)c(C(C)(C)C)c1`, the melting point was in the range of 170 to 172 °C.

Regarding `c1csc(-c2nc3ccc(N4CCNCC4)nn3c2-c2ccncc2)c1`, the melting point is 217 to 220 °C.

`CCN(CC)S(=O)(=O)c1ccccc1S(=O)(=O)N=C(Nc1nc(OC)nc(OC)n1)SC` had a melting point of 150 °C.

Consider `CN1CCC(c2c(O)cc(O)c3c(=O)cc(-c4ccccc4Cl)oc23)C1CC#N` (stereo unspecified), for which the melting point is 107 to 108 °C.

`COc1cc(C=O)c(C=O)cc1OCCCl` had a melting point of 113 to 114 °C.

The compound `N#Cc1nn(-c2c(Cl)cc(C(F)(F)F)cc2Cl)c(CO)c1SC(F)(F)F` returned a melting point of 118 °C.

Take `CC(C)CC(=O)Nc1cccc(-c2ccnc3c(C(=O)c4ccsc4)cnn23)c1`: the melting point lay in the range of 137 to 139 °C.

On to `Clc1cc(Cl)c(CBr)c(Cl)c1`, for which the melting point was 51 to 52 °C.

In turn, `COc1ccc2[nH]c3c(c2c1)CC(N(C)C)CC3` (stereo unspecified) had a melting point of 126 to 128 °C.

Compound `O=[N+]([O-])c1c(Br)nc2ccc(Cl)cc2c1C(F)(F)F` displayed a melting point of 120 °C.

In the case of `Cc1c(C(=O)N(N)c2ccccc2)nn(-c2ccc(Cl)cc2Cl)c1-c1ccc(Cl)s1`, the melting point was in the range of 154 to 155 °C.

Take `CCOC(=O)c1cn(Cc2cn(-c3ccc(N4CC(CNC(=O)OC)OC4=O)cc3F)nn2)nc1N` (stereo unspecified): the melting point lay in the range of 98 to 100 °C.

On to `CCC(CC)/C(N)=C(\C)C#N`, for which the melting point is 150 °C.

In turn, `O=S(=O)(Nc1cccc2cc(-c3ncc(CO)s3)[nH]c12)c1cccs1` came in with a melting point of 209 to 210 °C.

Compound `O=C(O)CCC(=O)c1ccc(-c2cccc(F)c2)cc1` had a melting point of 153 to 155 °C.

In the case of `CC(C)(C)c1cc(NC(=O)Nc2ccc(OCCN3CCOCC3)c3ccccc23)n(-c2ccccc2)n1`, the melting point is 142 to 143 °C.

On to `COc1cccc(OC)c1C(=N)N`, for which the melting point is 170 to 174 °C.

Compound `COc1cc([C@H]2CC[C@H](c3cc(OC)c(OC)c(OC)c3)S2)cc(OC)c1OC` (relative stereo) had a melting point of 133 to 134 °C.

Consider `Cc1csc2ccc(C(O)=S)cc12`, for which the melting point lay in the range of 205 to 207 °C.

`Clc1cnc(Sc2cccs2)nc1` gave a melting point of 65 °C.

In turn, `CCCCc1nc(SC)c(C(=O)OCC)n1Cc1ccc(-c2ccc(S(=O)(=O)NC#N)cc2C)cc1` yielded a melting point of 211 °C.

Compound `CC(=O)NC(=NNNc1ccccc1[N+](=O)[O-])c1ccccc1Cl` returned a melting point of 196 to 198 °C.

In the case of `COc1cc(Nc2c(C#N)cnc3cc(-c4cccc(CCN5CCOCC5)c4)ccc23)c(Cl)cc1Cl`, the melting point fell in the range of 146 to 148 °C.
